# Laboratory results taken from US7737136B2 (N.V. Organon, priority 2002, dated 2010).
# Molecular target: T1, human progesterone receptor-B (Homo sapiens, UniProt P06401)
# T1 construct: expressed in transfected cells; host or cells: Chinese hamster ovary (CHO) cells, line CHO-PRB-pMMTV-LUC 1E2-A2
# T1 sequence (P06401 1-933): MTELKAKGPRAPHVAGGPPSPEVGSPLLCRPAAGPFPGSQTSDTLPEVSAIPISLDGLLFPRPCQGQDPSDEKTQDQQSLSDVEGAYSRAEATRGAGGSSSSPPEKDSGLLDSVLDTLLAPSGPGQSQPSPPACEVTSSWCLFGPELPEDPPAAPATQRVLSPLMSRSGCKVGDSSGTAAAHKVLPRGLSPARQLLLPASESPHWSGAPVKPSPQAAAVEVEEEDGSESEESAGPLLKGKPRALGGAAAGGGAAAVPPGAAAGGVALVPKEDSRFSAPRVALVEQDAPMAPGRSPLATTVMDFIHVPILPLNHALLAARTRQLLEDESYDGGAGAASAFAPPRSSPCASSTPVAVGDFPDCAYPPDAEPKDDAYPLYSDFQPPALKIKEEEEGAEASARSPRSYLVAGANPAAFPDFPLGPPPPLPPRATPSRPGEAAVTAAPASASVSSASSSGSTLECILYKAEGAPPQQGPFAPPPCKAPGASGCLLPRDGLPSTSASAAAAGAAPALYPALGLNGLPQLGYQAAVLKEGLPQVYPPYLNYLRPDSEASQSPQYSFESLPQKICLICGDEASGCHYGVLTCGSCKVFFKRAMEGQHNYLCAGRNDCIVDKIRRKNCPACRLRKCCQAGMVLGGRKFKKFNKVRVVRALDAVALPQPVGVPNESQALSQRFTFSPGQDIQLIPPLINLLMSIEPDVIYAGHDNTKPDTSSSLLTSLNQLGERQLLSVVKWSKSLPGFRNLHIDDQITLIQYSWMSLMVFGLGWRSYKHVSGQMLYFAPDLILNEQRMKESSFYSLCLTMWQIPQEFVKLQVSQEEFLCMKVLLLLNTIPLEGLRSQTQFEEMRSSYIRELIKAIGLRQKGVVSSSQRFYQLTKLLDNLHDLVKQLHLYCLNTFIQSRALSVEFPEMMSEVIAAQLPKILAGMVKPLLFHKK
# Experiment: Progesterone receptor-B transactivation assay, progestagenic (agonist) activity, CHO-PRB-pMMTV-LUC 1E2-A2 cells
# Assay type: cell-based
# Settings: not given
# Procedure: (§1) The (anti-)progestagenic activity of a compound of the invention (EC 50 and intrinsic activity) was determined in an in vitro bioassay of Chinese hamster ovary (CHO) cells stably transfected with the human progesterone receptor-B expression plasmid and with a reporter plasmid in which the MMTV-promoter is linked to the luciferase reporter gene. […] The cells were cultured with charcoal-treated supplemented defined bovine calf serum from Hyclone (Utah, USA) in Dulbecco's Modified Eagles Medium/Nutrient Mixture F-12 (DMEM/HAM F12 in ratio 1:1) from Gibco (Paisley, UK).
row,Compound,EC50
1,"CCCN[C@H]1CCCN2c3cc(Cl)ccc3Oc3ccccc3[C@H]12 (relative stereo) [Example 37, trans-N-Propyl-7-chloro-2,3,4,14b-tetrahydro-1H-dibenzo[b,f]pyrido[1,2-d][1,4]oxazepine-1-amine]",100 to 10000 nM
2,"O=C(CF)N[C@H]1CCCN2c3cc(Cl)ccc3Oc3ccccc3[C@H]12 (relative stereo) [Example 11, trans-N-(7-Chloro-2,3,4,14b-tetrahydro-1H-dibenzo[b,f]pyrido[1,2-d][1,4]oxazepin-1-yl)-2-fluoroacetamide]",10 to 100 nM

# Same assay, conditions: CHO cells stably transfected with human progesterone receptor-B and MMTV-luciferase reporter; read-out: Progestagenic activity EC50
row,Compound,EC50
1,"CC(=O)N[C@H]1CCCN2c3cc(Cl)ccc3Oc3ccccc3[C@H]12 (relative stereo) [Example 10, trans-N-(7-Chloro-2,3,4,14b-tetrahydro-1H-dibenzo[b,f]pyrido[1,2-d][1,4]oxazepin1-yl)acetamide]",100 to 10000 nM
2,"O=C(N[C@H]1CCCN2c3cc(F)ccc3Oc3ccccc3[C@H]12)C(F)(F)F (relative stereo) [Example 5, trans-2,2,2-Trifluoro-N-(7-fluoro-2,3,4,14b-tetrahydro-1H-dibenzo[b,f]pyrido[1,2-d][1,4]oxazepin-1-yl)acetamide]",100 to 10000 nM
3,FCC(=S)N[C@H]1CCCN2c3cc(Cl)ccc3Oc3ccccc3[C@H]12 [Example 22],< 10 nM
4,"CN(C(=O)C(F)(F)F)[C@H]1CCCN2c3cc(Cl)ccc3Oc3ccccc3[C@H]12 (relative stereo) [Example 28, trans-N-(7-Chloro-2,3,4,14b-tetrahydro-1H-dibenzo[b,f]pyrido[1,2-d][1,4]oxazepin-1-yl)-2,2,2-trifluoro-N-methylacetamide]",100 to 10000 nM
5,FC(F)C(=S)N[C@H]1CCCN2c3cc(Cl)ccc3Oc3ccccc3[C@H]12 (relative stereo) [Example 23],< 10 nM
6,"NCC(=O)N[C@H]1CCCN2c3cc(Cl)ccc3Oc3ccccc3[C@H]12 (relative stereo) [Example 16, trans-2-Amino-N-(7-chloro-2,3,4,14b-tetrahydro-1H-dibenzo[b,f]pyrido[1,2-d][1,4]oxazepin-1-yl)acetamide]",100 to 10000 nM
7,O=C(CCl)NC1CCCN2c3cc(Cl)ccc3Oc3ccccc3C12 (centres unmarked) [Example 14],100 to 10000 nM
8,FC(F)(F)C(=S)N[C@H]1CCCN2c3ccccc3Oc3ccccc3[C@H]12 (relative stereo) [Example 25],< 10 nM
9,CN(C(=S)C(F)(F)F)C1CCCN2c3cc(Cl)ccc3Oc3ccccc3C12 (centres unmarked) [Example 24],10 to 100 nM
10,"S=CN[C@H]1CCCN2c3cc(Cl)ccc3Oc3ccccc3[C@H]12 (relative stereo) [Example 18, trans-N-(7-Chloro-2,3,4,14b-tetrahydro-1H-dibenzo[b,f]pyrido[1,2-d][1,4]oxazepin-1-yl)methanethioamide]",100 to 10000 nM
11,O=C(N[C@H]1CCCN2c3c(Cl)cccc3Oc3ccccc3[C@H]12)C(F)(F)F (relative stereo) [Example 42B],100 to 10000 nM

# Next, values leading:
row,EC50,Compound
1,< 10 nM,"O=C(N[C@H]1CCCN2c3c(Br)cccc3Oc3ccccc3[C@H]12)C(F)(F)F (relative stereo) [Example 51, trans-N-(6-Bromo-2,3,4,14b-tetrahydro-1H-dibenzo[b,f]pyrido[1,2-d][1,4]oxazepin-1-yl)-2,2,2-trifluoroacetamide]"
2,10 to 100 nM,"O=C(N[C@H]1CCCN2c3cc(Cl)ccc3Oc3cc(Br)ccc3[C@H]12)C(F)(F)F (relative stereo) [Example 68, trans-N-(12-Bromo-7-chloro-2,3,4,14b-tetrahydro-1H-dibenzo[b,f]pyrido[1,2-d][1,4]oxazepin-1-yl)-2,2,2-trifluoroacetamide]"
3,< 10 nM,"Cc1cc(F)cc2c1N1CCC[C@H](NC(=O)C(F)(F)F)[C@H]1c1ccccc1O2 (relative stereo) [Example 60, trans-2,2,2-Trifluoro-N-(8-fluoro-2,3,4,14b-tetrahydro-6-methyl-1H-dibenzo[b,f]pyrido-[1,2-d][1,4]oxazepin-1-yl)acetamide]"
4,< 10 nM,"O=C(N[C@H]1CCCN2c3cc(Cl)ccc3Oc3cc(F)c(F)cc3[C@H]12)C(F)(F)F (relative stereo) [Example 75, trans-N-(7-Chloro-12,13-difluoro-2,3,4,14b-tetrahydro-1H-dibenzo[b,f]pyrido[1,2-d][1,4]oxazepin-1-yl)-2,2,2-trifluoroacetamide]"
5,100 to 10000 nM,"O=C(N[C@H]1CCCN2c3c(Br)cc(F)cc3Oc3ccccc3[C@H]12)C(F)(F)F (relative stereo) [Example 56, trans-N-(6-Bromo-8-fluoro-2,3,4,14b-tetrahydro-1H-dibenzo[b,f]pyrido[1,2-d][1,4]oxazepin-1-yl)-2,2,2-trifluoroacetamide]"
6,< 10 nM,"CN1c2ccccc2[C@@H]2[C@@H](NC(=O)C(F)(F)F)CCCN2c2cc(Cl)ccc21 (relative stereo) [Example 76, trans-N-(7-Chloro-1,2,3,4,10,14b-hexahydro-10-methyl-dibenzo[b,f]pyrido[1,2-d][1,4]diazepin-1-yl)-2,2,2-trifluoroacetamide]"
7,< 10 nM,"CC(=O)N[C@H]1CCCN2c3c(ccc(Cl)c3Cl)Oc3ccccc3[C@H]12 (relative stereo) [Example 47, trans-N-(6,7-Dichloro-2,3,4,14b-tetrahydro-1H-dibenzo[b,f]pyrido[1,2-d][1,4]oxazepin-1-yl)acetamide]"
8,10 to 100 nM,"COc1cccc2c1N1CCC[C@H](NC(=O)C(F)(F)F)[C@H]1c1ccccc1O2 (relative stereo) [Example 55, trans-N-(2,3,4,14b-Tetrahydro-6-methoxy-1H-dibenzo[b,f]pyrido[1,2-d][1,4]oxazepin-1-yl)-2,2,2-trifluoroacetamide]"
9,< 10 nM,"CC(=O)c1cc(F)cc2c1N1CCC[C@H](NC(=O)C(F)(F)F)[C@H]1c1ccccc1O2 (relative stereo) [Example 57, trans-N-(6-Acetyl-8-fluoro-2,3,4,14b-tetrahydro-1H-dibenzo[b,f]pyrido[1,2-d][1,4]oxazepin-1-yl)-2,2,2-trifluoroacetamide]"
10,< 10 nM,"O=C(N[C@H]1CCCN2c3cc(Cl)ccc3Oc3cccc(F)c3[C@H]12)C(F)(F)F (relative stereo) [Example 73, trans-N-(7-Chloro-14-fluoro-2,3,4,14b-tetrahydro-1H-dibenzo[b,f]pyrido[1,2-d][1,4]oxazepin-1-yl)-2,2,2-trifluoroacetamide]"
11,< 10 nM,"O=C(N[C@H]1CCCN2c3cc(Br)ccc3Oc3ccccc3[C@H]12)C(F)(F)F (relative stereo) [Example 61, trans-N-(7-Bromo-2,3,4,14b-tetrahydro-1H-dibenzo[b,f]pyrido[1,2-d][1,4]oxazepin-1-yl)-2,2,2-trifluoroacetamide]"
12,< 10 nM,"N#Cc1ccc2c(c1)N1CCC[C@H](NC(=O)C(F)(F)F)[C@H]1c1ccccc1O2 (relative stereo) [Example 63, trans-2,3,4,14b-Tetrahydro-1-[(trifluoroacetyl)amino]-1H-dibenzo[b,f]pyrido[1,2-d][1,4]oxazepine-7-carbonitrile]"
13,10 to 100 nM,"O=C(N[C@H]1CCCN2c3cc(Cl)ccc3Oc3cc(F)ccc3[C@H]12)C(F)(F)F (relative stereo) [Example 74, trans-N-(7-Chloro-12-fluoro-2,3,4,14b-tetrahydro-1H-dibenzo[b,f]pyrido[1,2-d][1,4]oxazepin-1-yl)-2,2,2-trifluoroacetamide]"

# Molecular target: T1, human progesterone receptor-B
# Experiment: Progesterone receptor-B transactivation assay, antiprogestagenic activity (inhibition of luciferase transactivation induced by Org 2058)
# Assay type: cell-based
# Settings: in the presence of 1 nM (16α)-16-ethyl-21-hydroxy-19-norpregn-4-ene-3,20-dione (Org 2058); read-out: Anti-progestagenic activity EC50
# Procedure: as §1
row,EC50,Compound
1,10 to 100 nM,"FCC(=S)NC1CCCN2c3cc(Cl)ccc3Oc3ccccc3C12 [22 (1S,14bR isomer)]"
2,100 to 10000 nM,"CC(=O)N[C@H]1CCCN2c3cc(Cl)ccc3Oc3ccccc3[C@H]12 (relative stereo) [Example 10, trans-N-(7-Chloro-2,3,4,14b-tetrahydro-1H-dibenzo[b,f]pyrido[1,2-d][1,4]oxazepin1-yl)acetamide]"
3,100 to 10000 nM,"O=C(N[C@H]1CCCN2c3cc(F)ccc3Oc3ccccc3[C@H]12)C(F)(F)F (relative stereo) [Example 5, trans-2,2,2-Trifluoro-N-(7-fluoro-2,3,4,14b-tetrahydro-1H-dibenzo[b,f]pyrido[1,2-d][1,4]oxazepin-1-yl)acetamide]"
4,100 to 10000 nM,S=C(NC1CCCCC1)N[C@H]1CCCN2c3cc(Cl)ccc3Oc3ccccc3[C@H]12 (relative stereo) [Example 33]
5,100 to 10000 nM,CC(C)(C)NC(=S)NC1CCCN2c3cc(Cl)ccc3Oc3ccccc3C12 (centres unmarked) [Example 35]
6,100 to 10000 nM,"CC(C)CNC(=S)N[C@H]1CCCN2c3cc(Cl)ccc3Oc3ccccc3[C@H]12 (relative stereo) [Example 32, trans-N-(7-Chloro-2,3,4,14b-tetrahydro-1H-dibenzo[b,f]pyrido[1,2-d][1,4]oxazepin-1-yl)-N′-(2-methylpropyl)thiourea]"
